“And” between values parts separate entries of the source, which are not always exact repeats. Equal values may be shown once.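 Where inhibition never reached the appropriate level, the endpoint shown equals the highest concentration tested. Otherwise, values were interpolated linearly from a five-concentration, 48-hour dose response in 96-well plates. Abbreviation: GI50, concentration required for 50% inhibition of growth. The concentration for full growth arrest is given as TGI.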 *1 amine or outer side, *2 acyl side, *3 side chain or, on linkers, in order; H or OH if unused. Where a SMILES comes first, the peptide text is derived from it. [ ]: non-standard residue; d: D form. X56 = CC[C@H](C)[C@H](OC(=O)[C@@H](C)[C@@H](CC)N[*:1])C(=O)[*:2]; X32 = C[C@H](N[*:1])C(=O)C(C)(C)C(=O)[*:2]; NMeY = CN[C@@H](Cc1ccc(O)cc1)C(=O)O; NMeL = CN[C@@H](CC(C)C)C(=O)O; NMeV = CN[C@H](C(=O)O)C(C)C Some results are limits rather than exact numbers.

Some test systems named below: TK-10 renal; SN12C renal; SF-539 CNS; HCT-116 colon; MALME-3M melanoma; LOX IMVI melanoma; SNB-19 CNS; SK-OV-3 ovarian; SK-MEL-5 melanoma; HL-60(TB) leukemia.
Experiment in all cases: NCI anticancer screen, dose series, 48 h

`CC[C@H](C)[C@@H]1OC(=O)[C@@H](C)[C@@H](CC)NC(=O)[C@H](C)NC(=O)C(C)(C)C(=O)[C@H](C)NC(=O)[C@H](Cc2ccc(OC)cc2)N(C)C(=O)[C@H](C(C)C)N(C)C(=O)CNC(=O)[C@H](CC(C)C)N(C)C(=O)CNC1=O` (cyclo(A[X56]G[NMeL]G[NMeV][NMeY](Me)[X32])): the GI50 is 0.0196 µM in the experiment with TK-10 renal; 0.0433 µM in the experiment on SN12C renal; 0.0239 µM in the experiment with SF-539 CNS; 0.0304 µM in the experiment with MALME-3M melanoma; 0.0392 µM in the experiment with LOX IMVI melanoma; 0.211 µM in the experiment with SNB-19 CNS. For the same molecule, the GI50 was 0.024 µM in the experiment with SK-OV-3 ovarian and 0.135 µM in the experiment with SK-MEL-5 melanoma. Further, the TGI was 0.299 µM and 0.0735 µM in the experiment on TK-10 renal; 9.79 µM and 3.68 µM in the experiment on SN12C renal; 0.0508 µM and 0.126 µM in the experiment with SF-539 CNS; 11.3 µM in the experiment on HCT-116 colon; 0.492 µM and 0.688 µM in the experiment with SNB-19 CNS; 0.173 µM and 0.462 µM with SK-MEL-5 melanoma.
As to `O=C1CCS/C(=N\S(=O)(=O)c2ccc(N3N=C4c5ccccc5CC4C3c3cccs3)cc2)N1C(=O)c1ccccc1` (stereo not given), the GI50 in the experiment with TK-10 renal is 24.5 µM; in the experiment on SN12C renal, 16.7 µM; with SF-539 CNS, 2.38 µM; in the experiment with HCT-116 colon, 10 µM; in the experiment on LOX IMVI melanoma it was 7.61 µM; in the experiment with SNB-19 CNS, 45.7 µM. Also, the GI50 with SK-OV-3 ovarian is 52.8 µM; with SK-MEL-5 melanoma, 2.56 µM. For the same molecule, the TGI in the experiment with TK-10 renal was 54.7 µM; with SN12C renal it was 57.1 µM; with SF-539 CNS, above 100 µM; in the experiment with HCT-116 colon it was 21.6 µM; in the experiment on LOX IMVI melanoma, 23.8 µM; in the experiment on SNB-19 CNS, above 100 µM. Moreover, the TGI is above 100 µM in the experiment on SK-OV-3 ovarian and 6.07 µM in the experiment on SK-MEL-5 melanoma.
On to `COc1cc2c(cc1OCCCCOc1ccc(-c3nc4ccccc4s3)cc1)N=C[C@@H]1CCCN1C2=O`, for which the GI50 with HL-60(TB) leukemia is 0.384 µM; in the experiment on TK-10 renal it was 1.21 µM; in the experiment with SN12C renal, 1.13 µM; in the experiment on SF-539 CNS, 0.768 µM; with HCT-116 colon, 0.511 µM; with LOX IMVI melanoma it was 0.73 µM. Also, the GI50 in the experiment with SNB-19 CNS is 1.52 µM; in the experiment with SK-OV-3 ovarian, 1.92 µM; in the experiment with SK-MEL-5 melanoma, 0.667 µM. For the same molecule, the TGI stood at 16.5 µM with HL-60(TB) leukemia; 5.17 µM with TK-10 renal; 4 µM in the experiment on SN12C renal; 2 µM in the experiment with SF-539 CNS; 1.62 µM in the experiment with HCT-116 colon; 1.96 µM in the experiment with LOX IMVI melanoma. Further, the values for the TGI with SNB-19 CNS, with SK-OV-3 ovarian and with SK-MEL-5 melanoma were 3.04 µM, 5.08 µM and 1.85 µM, respectively.
For the molecule `Cc1cc2cn3c4cccnc4[nH]c(=O)c3c2cc1C`, the GI50 in the experiment with HL-60(TB) leukemia was 2.08 µM; in the experiment on TK-10 renal, 2.27 µM; in the experiment with SF-539 CNS, 1.73 µM; in the experiment with HCT-116 colon it was 1.45 µM; with LOX IMVI melanoma, 1.47 µM; in the experiment on SK-OV-3 ovarian, 1.8 µM. The GI50 in the experiment on SK-MEL-5 melanoma was 1.13 µM. For the same molecule, the TGI in the experiment with HL-60(TB) leukemia came out at 4.16 µM; in the experiment on TK-10 renal, 3.91 µM; with SF-539 CNS it was 3.12 µM; in the experiment with HCT-116 colon it was 2.76 µM; with LOX IMVI melanoma, 2.99 µM; in the experiment on SK-OV-3 ovarian, 3.2 µM. The molecule also registered a TGI with SK-MEL-5 melanoma of 2.34 µM.
Take `CC(C)C(=O)/C=C/c1ccc(Cl)c(Cl)c1`: the TGI was found to be 47 µM in the experiment on HL-60(TB) leukemia; 28.8 µM with TK-10 renal; 29.2 µM in the experiment on SN12C renal; 26 µM with SF-539 CNS; 15.2 µM with HCT-116 colon; 28.5 µM in the experiment on SNB-19 CNS. For the same molecule, the figures for the TGI in the experiment with SK-OV-3 ovarian and in the experiment with SK-MEL-5 melanoma were 70.3 µM and 28.8 µM, respectively.
As for `CSc1ncnc2c1CCN2`, the GI50 in the experiment with TK-10 renal, with HCT-116 colon, with MALME-3M melanoma, in the experiment on LOX IMVI melanoma, with SNB-19 CNS and in the experiment on SK-OV-3 ovarian was above 100 µM each time. Also, in the experiment on SK-MEL-5 melanoma, the GI50 was above 100 µM. For the same molecule, the TGI in the experiment with TK-10 renal, in the experiment on SN12C renal, in the experiment on HCT-116 colon, with MALME-3M melanoma, in the experiment on LOX IMVI melanoma and with SNB-19 CNS was above 100 µM each time. For the same molecule, the TGI in the experiment on SK-OV-3 ovarian and with SK-MEL-5 melanoma was above 100 µM throughout.
In the case of `O=[N+]([O-])c1ccc2nc3ccccc3cc2c1`, the TGI in the experiment with TK-10 renal amounted to 5.24 µM; in the experiment with SN12C renal, 5.63 µM; in the experiment with SF-539 CNS it was 6.82 µM; in the experiment with HCT-116 colon, 10.5 µM; in the experiment on MALME-3M melanoma, 13.3 µM; with LOX IMVI melanoma it was 6.91 µM. Besides, the TGI in the experiment on SNB-19 CNS worked out at 12.9 µM; in the experiment with SK-OV-3 ovarian it was 20.7 µM; in the experiment with SK-MEL-5 melanoma it was 14.4 µM.
Regarding `N#CC1CC2(C(=O)C1=O)c1ccccc1-c1ccccc12` (stereo not given), the TGI with HL-60(TB) leukemia, with TK-10 renal, in the experiment with SN12C renal, in the experiment on HCT-116 colon, in the experiment on MALME-3M melanoma and in the experiment with LOX IMVI melanoma was above 100 µM throughout. Besides, the TGI with SNB-19 CNS, in the experiment with SK-OV-3 ovarian and with SK-MEL-5 melanoma was above 100 µM each time.
For the molecule `COc1ccc(N(C)c2c3ccccc3nc3[nH]c4ccccc4c23)cc1`, the GI50 in the experiment with HL-60(TB) leukemia was 0.112 µM; in the experiment with TK-10 renal it was 0.681 µM; with SN12C renal it was 0.392 µM; with SF-539 CNS it was 0.354 µM; with HCT-116 colon, 0.279 µM; in the experiment with LOX IMVI melanoma, 0.55 µM. In addition, the GI50 is 0.634 µM in the experiment on SNB-19 CNS, 0.778 µM with SK-OV-3 ovarian and 0.835 µM in the experiment with SK-MEL-5 melanoma. The TGI with HL-60(TB) leukemia was determined as 0.466 µM; with TK-10 renal, 1.63 µM; in the experiment on SN12C renal it was 1.53 µM; in the experiment on SF-539 CNS it was 1.31 µM; with HCT-116 colon, 1.01 µM; in the experiment on LOX IMVI melanoma, 1.58 µM. In addition, the TGI in the experiment on SNB-19 CNS was 5.62 µM; in the experiment on SK-OV-3 ovarian, 4.52 µM; in the experiment with SK-MEL-5 melanoma, 2.24 µM.
On to `Cn1cnc([N+](=O)[O-])c1Sc1nnnn1-c1ccccc1`, for which the TGI with TK-10 renal was 32.4 µM; with SN12C renal, 29.7 µM; with SF-539 CNS, 24.9 µM; with HCT-116 colon, 23.4 µM; with MALME-3M melanoma it was 21.3 µM; in the experiment on LOX IMVI melanoma, 19.1 µM. Further, the TGI in the experiment with SNB-19 CNS is above 100 µM; in the experiment with SK-OV-3 ovarian it was above 100 µM; with SK-MEL-5 melanoma it was 29.9 µM.
